Test results as given in publication PMC6680510, “Benzotriazine Di-Oxide Prodrugs for Exploiting Hypoxia and Low Extracellular pH in Tumors” (Molecules, 2019).
Where “and” joins values, the source holds several entries; their conditions need not be identical. Identical values can stand only once. Like-named read-outs stand apart in the source and are kept apart here.

What was measured:
[1] = One-electron reduction potentials by pulse radiolysis; type: physicochemical; conditions: pH 7.0, equilibrium with redox indicator shown in square brackets
Description: One-electron reduction potentials (E^0′) were determined from the redox equilibria with methylviologen, MV^2+, (E^0′ = […], [34]), dimethyldiquat, V21^2+, (E^0′ = […], [35]), or triquat, TQ^2+, (E^0′ = −548 ± 7 mV [34]). […] Substituting the 3-alkanoic sidechain with the 3-aminoalkanoic sidechain on the BTO 1,4-dioxide lowers the E^0′, as does the addition of the cyclopentane ring. The combined effect is seen for 10a, where the E^0′ value is −565 mV, which is expected to be too low for significant bioreduction under hypoxia.
Time-resolved optical absorption and kinetic studies were carried out using the University of Auckland’s 4 MeV linear accelerator, which has been previously described. The one-electron reduction potentials of the compounds (A) and couple E^0′(A/A^−), versus normal hydrogen electrode, were determined at pH 7.0 (2.5 mM phosphate) by establishing redox equilibria within 50 μs between three mixtures of one-electron reduced A and the viologen reference compounds, MV^2+, TQ^2+ and V21^2+. The determined equilibrium constants were used to calculate the ΔE values using the Nernst equation, correcting for ionic strength effects, as described in the literature.

[2] = tested on: FaDu cells; assay: IC50 assay (inhibition of proliferation, 4 h exposure, SRB); type: cell-based
[3] = tested on: SiHa cells; assay: as above
Description: Cells were seeded in 96-well plates (SiHa or FaDu 1500 cells/well, UT-SCC-74B 800 cells/well) in 100 μL. After incubation for 2 h, the drugs were added in 50 μL of the same titrated medium at 3× the final concentration to duplicate the wells. After a further 4 h the plates were checked for drug precipitation using a phase contrast microscope, then drugs were removed by aspirating and washing with the standard (pH 7.4) medium, then aspirating again and adding 150 μL of the medium. Cultures were then grown for 5 days before staining with sulphorhodamine B and measuring absorbance, with the estimation of IC50 values using 4-parameter logistic regression, as previously carried out.
The medium and plasticware was equilibrated in the chamber for 3 days prior to use. In the anoxia experiments, FaDu cells were plated in poly-L-lysine coated plates (Corning Cat # 356461) to improve attachment.
Cells were subsequently grown under standard cell culture conditions (oxia, pHe 7.4) for 5 days before staining with sulforhodamine B (SRB). […] (B) SN30000 (2). (C) BTO acid 4a. Values are means and errors are ranges for duplicate cultures in a single experiment. Fitted curves are 4-parameter logistic regressions. PCR = pH cytotoxicity ratio. ACR = anoxia cytotoxicity ratio. TMR = tumor microenvironment ratio.

[4] = Solubility in AlphaMEM + 5% FBS, pH 7.4; conditions: culture medium (AlphaMEM + 5% FBS), pH 7.4, plasma or biological fluid, thermodynamic from solid
[5] = tested on: reduction of BTOs to their N-1-oxides by SiHa cells; assay: WST-1 inhibition of anoxic reduction of BTOs to N-1-oxides; type: cell-based
Excerpt: One possibility for this is that the BTO acids are reduced to the 1-oxides by an extracellular one-electron reductase. To test this, we evaluated whether the cell-excluded disulfonic acid tetrazolium salt WST-1 could compete with BTO acids for one-electron reduction. WST-1 is a known electron acceptor for one-electron reduction by the plasma membrane electron transport system (PMET) and is widely used as a cell viability assay, although the latter application uses 1-methoxyphenazine methylsulphate (mPMS) as an electron transfer intermediate. Given the possibility that mPMS could cross the plasma membrane itself, we used WST-1 without mPMS to ensure that the electron donor is a cell surface reductase.
The log-phase cells were trypsinized and the pellets were transferred to the anaerobic chamber and resuspended in equilibrated αMEM + 5% FBS at pH 7.4 and plated (10^5 cells in 100 μL/well for experiments with WST1, otherwise 2 × 10^5 cells/well). After incubation at 37 °C for 2 h, 20 μL was replaced with the anoxic medium containing 5× the final concentrations of test compounds with or without WST-1 (1 mM, Toronto Research Chemicals). A cell-free medium used as a control to check for reduction in the anoxic medium. Cultures were mixed gently, incubated for a further 2 h, then the extracellular medium was removed and 200 μL of ice-cold MeOH was added to the monolayers. The MeOH extract was transferred to the medium sample (thus combining the intracellular and extracellular samples). The pooled samples (combining the intracellular and extracellular samples) were removed from anoxic chamber, then centrifuged (13000g, 30 s) and frozen for subsequent HPLC analysis. Cell-free wells were used for single-point calibration of the parent compounds and 1-oxides in each experiment.
Figure 8 Inhibition of reduction of BTOs to their N-1-oxides by the cell-excluded electron acceptor WST-1. SiHa cells were seeded in 96-well plates at 10^6 cells/mL and exposed to the compounds (50 μM) with the indicated concentrations of WST-1 under anoxia for 2 h. Total (pooled intracellular and extracellular) amounts of the 1-oxide metabolites were determined by HPLC. Values are mean and SEM for two experiments with triplicate cultures at each concentration.

[6] = Homo sapiens, 4 h, pHe 6.5, 4 h, anoxic, read-out: Anoxic IC50
[7] = Homo sapiens, 4 h, pHe 6.5, 4 h, oxic, read-out: Oxic IC50
[8] = Homo sapiens, 4 h, pHe 7.4, 4 h, anoxic, read-out: Anoxic IC50
[9] = Homo sapiens, 4 h, pHe 7.4, 4 h, oxic, read-out: Oxic IC50
[10] = Homo sapiens, SiHa, 4 h, read-out: Anoxic IC50, SiHa, pHe 6.5, 4 h, anoxic
[11] = Homo sapiens, SiHa, 4 h, read-out: Anoxic IC50, SiHa, pHe 7.4, 4 h, anoxic
[12] = Homo sapiens, SiHa, 4 h, read-out: Oxic IC50, SiHa, pHe 6.5, 4 h, oxic
[13] = Homo sapiens, SiHa, 4 h, read-out: Oxic IC50, SiHa, pHe 7.4, 4 h, oxic

SMILES	E^0′ one-electron reduction potential [1]	TMR (oxic IC50 pHe 7.4/anoxic IC50 pHe 6.5) [2]	IC50 [2, 6] [µM]	IC50 [2, 7] [µM]	IC50 [2, 8] [µM]	IC50 [2, 9] [µM]	PCR Anoxic (IC50 at pHe 7.4/IC50 at pHe 6.5) ([2]; anoxic)	ACR (oxic IC50/anoxic IC50) ([2]; pHe 6.5)	ACR (oxic IC50/anoxic IC50) ([2]; pHe 7.4)	IC50 [3, 10] [µM]	IC50 [3, 11] [µM]	IC50 [3, 12] [µM]	IC50 [3, 13] [µM]	TMR (overall TME ratio = oxic IC50 pHe 7.4/anoxic IC50 pHe 6.5) ([3]; SiHa)	PCR Anoxic (IC50 at pHe 7.4/IC50 at pHe 6.5) ([3]; SiHa, anoxic)	ACR (anoxic cytotoxicity ratio = oxic IC50/anoxic IC50) ([3]; SiHa, pHe 6.5)	ACR (anoxic cytotoxicity ratio = oxic IC50/anoxic IC50) ([3]; SiHa, pHe 7.4)	solubility [4] [mM]	also measured
O=C(O)CNc1n[n+]([O-])c2ccccc2[n+]1[O-] [Compound 8a, 3-((Carboxymethyl)amino)benzo[e][1,2,4]triazine 1,4-dioxide]	−470 ± 9 [MV^2+] mV	>6.9	290 ± 48	1450 ± 268	289 ± 25	> 2000	1.0 ± 0.19	4.99 ± 1.24	>6.9	135 ± 18	154 ± 26	> 2000	> 2000	>15	1.14 ± 0.25	>15	>13	8.7	PCR oxic (IC50 at pHe 7.4/IC50 at pHe 6.5) ([2]; oxic): >1
COC(=O)CNc1n[n+]([O-])c2cc3c(cc2[n+]1[O-])CCC3 [Compound 9b, 3-((2-Methoxy-2-oxoethyl)amino)-7,8-dihydro-6H-indeno[5,6-e][1,2,4]triazine 1,4-dioxide]	–	>1.4	37.7 ± 8	> 53	46.9 ± 3	> 53	1.24 ± 0.28	>1	>1	10.9 ± 1.42	8.08 ± 2.23	42.2 ± 5.7	> 53	>4.6	0.74 ± 0.23	3.87 ±0.73	>6.5	0.07	melting point: 171 to 178 °C; PCR oxic (IC50 at pHe 7.4/IC50 at pHe 6.5) ([3]; SiHa, oxic): >1.2
O=C(O)CCCNc1n[n+]([O-])c2ccccc2[n+]1[O-] [Compound 10a, 3-((3-Carboxypropyl)amino)benzo[e][1,2,4]triazine 1,4-Dioxide]	−565 mV and −565 ± 8 [TQ^2+] mV	>4	–	–	–	–	1.58 ± 0.37	>4	>3	–	–	–	–	>4.8	>4.8	–	–	–	IC50 ([2]; pHe 6.5, 4 h, anoxic, read-out: Anoxic IC50): 543 ± 126 µM; IC50 ([2]; pHe 6.5, 4 h, oxic, read-out: Oxic IC50): > 2000 µM; IC50 ([2]; pHe 7.4, 4 h, anoxic, read-out: Anoxic IC50): 856 ± 22 µM; IC50 ([2]; pHe 7.4, 4 h, oxic, read-out: Oxic IC50): > 2000 µM; ACR (anoxic cytotoxicity ratio = oxic IC50/anoxic IC50) [3]: >4.8; IC50 ([3]; read-out: Anoxic IC50, SiHa, pHe 6.5, 4 h, anoxic): 416 ± 57 µM; IC50 ([3]; read-out: Anoxic IC50, SiHa, pHe 7.4, 4 h, anoxic): > 2000 µM; IC50 ([3]; read-out: Oxic IC50, SiHa, pHe 6.5, 4 h, oxic): > 2000 µM; IC50 ([3]; read-out: Oxic IC50, SiHa, pHe 7.4, 4 h, oxic): > 2000 µM
O=[N+]([O-])c1ccc(-[n+]2nc(-c3ccc(S(=O)(=O)O)cc3S(=O)(=O)[O-])nn2-c2ccc(I)cc2)cc1 [WST-1]	–	–	–	–	–	–	–	–	–	–	–	–	–	–	–	–	–	–	IC50 ([5]; read-out: IC50 for inhibition of anoxic reduction of 4a to N-1-oxide 15a, substrate 4a 50 μM, anoxia 2 h): 7.05 µM; IC50 ([5]; read-out: IC50 for inhibition of anoxic reduction of 7a to N-1-oxide 15d, substrate 7a 50 μM, anoxia 2 h): 14.3 µM; IC50 ([5]; substrate SN30000 50 μM, anoxia 2 h, read-out: IC50 for inhibition of metabolic reduction of SN30000): > 1000 µM; IC50 ([5]; substrate TPZ 50 μM, anoxia 2 h, read-out: IC50 for inhibition of metabolic reduction of TPZ): > 1000 µM
